Results from patent US12624350B2, “High-throughput single-nuclei and single-cell libraries and methods of making and of using” (ILLUMINA, INC., priority 2019, dated 2026).

Key:
Assay type in all cases: cell-based, human
MCF7 = assay: sci-Plex of pracinostat co-treatment with acetyl-CoA precursors or enzyme inhibitors; conditions: 24 hours
From the text: (§1) To validate this further, we sought to shift the distribution of cells along the HDAC inhibitor trajectory by modulating cellular acetyl-CoA levels. We treated A549 and MCF7 cells with pracinostat in the presence and absence of acetyl-CoA precursors (acetate, pyruvate, or citrate) or inhibitors of enzymes (ACLY, ACSS2, or PDH) involved in replenishing acetyl-CoA pools. After treatment, cells were harvested and processed using sci-Plex and trajectories constructed for each cell line (FIGS. 39 and 40).
(§2) For 96-well experiments, adherent cells were trypsinized, washed with PBS and plated in tissue culture treated 96 well flat bottom plates (Thermo Fisher Scientific, cat no. 12-656-66) at 25,000 cells per well in 100 μL of media. Suspension cells were washed with PBS and plated in 96 well V-bottom tissue culture plates (Thermo Fisher Scientific, cat no. 549935) at 25,000 cells per well in 100 μL of media. Cells were allowed to recover for 24 hours before treatment with 1 μL of a 1:10 dilution of the appropriate compound or vehicle in PBS to maintain a vehicle concentration of 0.1% for all wells. Cells were then exposed to small molecules at the specified concentration for either 24 or 72 hours. For experiments where cells were co-treated with HDAC inhibitors and either acetate, pyruvate, citrate, ACSS2 inhibitor (EMD Millipore Inc., Cat No. 533756), ACLY inhibitor (Cayman Chemicals, BMS-303141 Cat No. 943962-47-8) or PDH inhibitor (Cayman Chemicals, Cat No. 504817), cells were treated 24 hours after plating and harvested after 24 hours. In this set of experiments, all wells contained a final concentration of 0.2% DMSO to match treatment with both the HDAC inhibitor and inhibitors of metabolic processes.
(§3) Gene expression profiles were visualized with Monocle 3, which uses UMAP to project them into a two or three dimensional space. Briefly, Monocle 3 first calculates size factors for every cell. Size factors were calculated as the log UMI counts observed in a single cell divided by the geometric mean of log UMI counts from all measured cells. After scaling each nucleus' UMI counts by its library size factor, Monocle3 adds a pseudocount of 1, and log transforms the counts. Next, these log-transformed profiles are projected onto the top 25 principal components. These PCA coordinates were transformed by Monocle 3 (using an approach similar to the removeBatchEffect( ) function in the limma package (42)) according to the model ‘˜log(UMIs)+replicate’ (FIG. 9) or ‘log(UMIs)+viability+proliferation index+replicate’. Adjusted PCA coordinates for each cell are used to initialize UMAP. Unless otherwise noted, UMAP was run with the following parameters: 50 nearest neighbors, min_dist=0.1, inter-cell distance assessed by cosine similarity. UMAP projection of cells after dual HDAC inhibition and acetyl-COA precursor supplementation or acetyl-CoA generating enzyme inhibition was performed as described with the exception that PCA initialization was performed on the top 1000 most overdispersed genes. Louvain community detection was then performed on this UMAP space using the python package ‘louvain’. Trajectory reconstruction was then performed as described in (21).

A549 [1] = assay: as above; conditions: 24 hours
From the text: as §1, §2, §3

A549 [2] = assay: large-scale sci-Plex screen (sci-RNA-seq3) of 188 compounds; conditions: A549, 24 hours; for distinct transcriptional states induced by the same drug (focal enrichments in UMAP): cells from all four doses
Experimental: We exposed three well-characterized human cancer cell lines, A549 (lung adenocarcinoma), K562 (chronic myelogenous leukemia), and MCF7 (mammary adenocarcinoma), to each of these 188 compounds at four doses (10 nM, 100 nM, 1 mM, and 10 mM) in duplicate, randomizing compounds and doses across well positions in replicate culture plates (data not shown). These conditions, together with vehicle controls, accounted for 4608 of 4992 independently treated cell populations in this experiment. After treatment, we lysed cells to expose nuclei, hashed them with a specific combination of two oligos (FIG. 10A), and performed sci-RNA-seq3 (21).
Lysis was conducted in the 96 well V-bottom plate. […] For the large compound screen, 500 femtomoles of an additional oligo was used to uniquely index each 96 well treatment plate. After lysis with 3 strokes of multichannel pipette, cells were fixed by addition of 200 μL of fixation buffer (5% Paraformaldehyde, 1.25×PBS). Nuclei were then fixed on ice for 15 minutes before pooling into a trough. Nuclei were pooled by plate into a 50 mL conical tube and pelleted by centrifugation at 500×g for 5 minutes. Subsequently, cells were resuspended in 500 μL of nuclei suspension buffer (NSB; (10 mM Tris-HCl, pH 7.4, 10 mM NaCl, 3 mM MgCl2, 1% Superase RNA Inhibitor, 1% 0.2 mg/mL Ultrapure BSA)). Finally, nuclei from all plates were pooled into a single conical tube and nuclei were pelleted by centrifugation at 500×g for 5 minutes. Nuclei were then resuspended in 1 mL of NSB and flash frozen into liquid nitrogen in 100 μL aliquots. Nuclei were then stored at −80 C until further processing with sci-RNA-seq.

A549 [3] = assay: pilot sci-Plex experiment (sci-RNA-seq2), four compounds; conditions: A549, 24 hours, seven doses
Experimental: We exposed A549, a human lung adenocarcinoma cell line, to one of four compounds: dexamethasone (a corticosteroid agonist), nutlin-3a (a p53-Mdm2 antagonist), BMS-345541 (an inhibitor of nuclear factor kB-dependent transcription), or vorinostat [suberoylanilide hydroxamic acid (SAHA), an HDAC inhibitor], for 24 hours across seven doses in triplicate for a total of 84 drug-dose-replicate combinations and additional vehicle controls (FIG. 6A and FIG. 7A). We labeled nuclei from each well and subjected them to sci-RNA-seq2 (FIG. 7, B to D, and Table 1).
To quantify the “population average” transcriptional response of A549 cells to each of the four drugs, we modeled each gene's expression as a function of dose through generalized linear regression. […] Additionally, we evaluated whether the number of cells recovered at each concentration could be used to infer toxicity akin to traditional screens.

A549 [4] = assay: sci-Plex of A549 cells treated for 72 hours with one of 48 compounds; conditions: A549, 72 hours
Experimental: Such heterogeneity could be explained by cells executing a defined transcriptional program asynchronously, with the dose of drug that the cells are exposed to modulating the rates of their progression through it. To test this hypothesis, we sequenced the transcriptomes of 64,440 A549 cells that were treated for 72 hours with one of 48 compounds, including many of the HDAC inhibitors from the large sci-Plex screen.
For 96-well experiments, adherent cells were trypsinized, washed with PBS and plated in tissue culture treated 96 well flat bottom plates (Thermo Fisher Scientific, cat no. 12-656-66) at 25,000 cells per well in 100 μL of media. Suspension cells were washed with PBS and plated in 96 well V-bottom tissue culture plates (Thermo Fisher Scientific, cat no. 549935) at 25,000 cells per well in 100 μL of media. Cells were allowed to recover for 24 hours before treatment with 1 μL of a 1:10 dilution of the appropriate compound or vehicle in PBS to maintain a vehicle concentration of 0.1% for all wells. […]
To organize cells treated with HDAC inhibitors into a trajectory cells were sampled to equalize the number of cells represented between the three cell lines or between treatments at 24 and 72 hrs. […] All other cells' pseudodoses was measured as the geodesic distance between their nearest principal graph node to an origin node.

[5] = tested on: A549, MCF7 and K562 cells; assay: flow cytometry of total cellular acetylated lysines; parameters: dose or concentration left out as unconfirmed; conditions: 24 hours
Experimental: A549 and MCF7 cells were seeded in 6 cm dishes at 1.6×10^6 cells per plate. K562 cells were seeded in T25 cm2 flasks at 1.6×10^6 cells per flask. […] After treatment cells were harvested as described above, pellets washed twice in PBS, resuspended in 500 μL of cold PBS and fixed by the addition of 5 mL of ice-cold ethanol while vortexing at low speed. Cells were stored at −20 C prior to processing for flow cytometry analysis. For flow cytometry, ethanol was removed and fixed cells washed twice with PBS containing 1% BSA (PBS-B) and blocked for 1 hour at room temperature. Then, blocking buffer was removed and cells were incubated in PBS containing 1% BSA and 0.1% tryton X-100 (PBS-BT) as well as a 1:500 dilution of mouse anti-acetyl-lysine antibody (cat no. ICP0390, ImmuneChem Pharmaceuticals Inc) for 2 hours at room temperature. After incubation, cells were washed twice with PBS-BT and incubated with goat anti-mouse Alexa-647 in PBS-BT for 1 hour at room temperature. Lastly, cells were washed twice with PBS-BT, once with PBS-B and resuspended in PBS-B containing 5 μg/ml Hoechst 33258 (Life Sciences Technologies) to stain the DNA. Then the levels of total acetylated-lysine and DNA content was analyzed by flow cytometry on an LSRII flow cytometer (BD Biosciences). Quantification and downstream analysis was performed using FlowJo10 (FlowJo.LLC).

[6] = tested on: lung adenocarcinoma-derived (A549) cells; assay: sciPlex-ATAC-seq chemical screen (single-cell chromatin accessibility); conditions: A549, 24 hours
Experimental: Each well of a 96-well culture dish was treated for 24 hours with Nutlin-3A (p53 agonist), SAHA (broad spectrum histone deacetylase inhibitor), BMS345541 (NF-kB inhibitor), Dexamethasone (glucocorticoid receptor agonist) or a vehicle control. Moreover, we varied the dose of drug added to each well, such that the effects of each compound could be evaluated at seven different concentrations. Finally, all treatments were performed in biological triplicate (FIG. 42A). After applying unique labels to each well, cells from all conditions were pooled for parallel preparation of single cell accessible chromatin profiles.
Adherent cells grown in 96 well format were prepared by first aspirating the existing media. 50 µL of TrypLE (Termo-Fisher) was then added per well and the plate was incubated at 37 C for 15 minutes for A549. After incubation, 1504 of 1×DMEM (Gibco)+10% FBS (Gibco) was added to quench the TrypLE reaction. The 2004 volume cell suspension in each well was then transferred into a V-bottom 96 well plate, preserving the well orientations. Cells were then spun for 5 minutes at 300 g to pellet cells before aspirating media. Cell pellets were washed with 100 μL 1×DPBS and then pelleted at 300 g for 5 minutes. […]
Pooled, hash-labeled nuclei were thawed on ice, inspected for nuclei integrity, counted and further adjusted to 2.5 million nuclei/mL if necessary. […]

O=C(O)CC(O)(CC(=O)O)C(=O)O [citrate] was tested, and the “shift of pracinostat treated cells along the HDAC inhibitor trajectory” value (MCF7) was “capable of blocking pracinostat treated cells from reaching the end of the HDAC inhibitor trajectory” and the “shift of pracinostat treated cells along the HDAC inhibitor trajectory” value (A549 [1]) was “capable of blocking pracinostat treated cells from reaching the end of the HDAC inhibitor trajectory”.

In the case of CC(=O)O [acetate], the “shift of pracinostat treated cells along the HDAC inhibitor trajectory” value (MCF7) is reported as “capable of blocking pracinostat treated cells from reaching the end of the HDAC inhibitor trajectory” and the “shift of pracinostat treated cells along the HDAC inhibitor trajectory” value (A549 [1]) is reported as “capable of blocking pracinostat treated cells from reaching the end of the HDAC inhibitor trajectory”.

For C/C(=C\c1csc(C)n1)[C@@H]1C[C@@H]2O[C@]2(C)CCC[C@H](C)[C@H](O)[C@@H](C)C(=O)C(C)(C)[C@@H](O)CC(=O)O1 [epothilone B], the “distinct transcriptional states induced by the same drug (focal enrichments in UMAP)” value (A549 [2]) was “associated with three such focal enrichments”.

With COCCNC(=O)Nc1ccc2nc(-c3cccs3)c(-c3cccs3)nc2c1 [ACSS2 inhibitor] the “shift of pracinostat treated cells along the HDAC inhibitor trajectory” value (MCF7) was “shifted cells farther along the HDAC inhibitor trajectory” and the “shift of pracinostat treated cells along the HDAC inhibitor trajectory” value (A549 [1]) was “no such shift was observed”.

For COc1ccc(-c2ccccc2)cc1NS(=O)(=O)c1cc(Cl)cc(Cl)c1O [ACLY inhibitor], the “shift of pracinostat treated cells along the HDAC inhibitor trajectory” value (MCF7) was “shifted cells farther along the HDAC inhibitor trajectory” and the “shift of pracinostat treated cells along the HDAC inhibitor trajectory” value (A549 [1]) was “no such shift was observed”.

CC1(C)O[C@@H]2C[C@H]3[C@@H]4CCC5=CC(=O)C=C[C@]5(C)[C@@]4(F)[C@@H](O)C[C@]3(C)[C@]2(C(=O)CO)O1 [triamcinolone acetonide] was tested, and the “share of the cells of one small UMAP cluster that were treated with the compound” value (A549 [2]; cluster 18, Fisher's exact test FDR<1%) was 95%.

With COc1ccc(C2=N[C@@H](c3ccc(Cl)cc3)[C@@H](c3ccc(Cl)cc3)N2C(=O)N2CCNC(=O)C2)c(OC(C)C)c1 [nutlin-3a] the “drug-specific pathways revealed by gene ontology analysis of differentially expressed genes” value (A549 [3]) was “p53 signaling”.

Cc1nc(-c2cccnc2)sc1C(=O)Nc1ccccc1-c1cn2c(CN3CCOCC3)csc2n1 [SRT1024] was tested, and the “focal concentrations of cells in coembedded UMAP projection, 72 hours versus 24 hours” value (A549 [4]) was “new focal concentrations of cells at 72 hours”.

CCCCc1nc2cc(/C=C/C(=O)NO)ccc2n1CCN(CC)CC [pracinostat] was tested, and the “heterogeneity of cell response along the HDAC inhibitor pseudodose trajectory at each dose” value (A549 [2]) was “homogeneous responses” and the acetylated lysine levels [5] was “markedly increased acetylated lysine levels”.

With O=C(CCCCCCC(=O)Nc1ccccc1)NO [SAHA, suberoylanilide hydroxamic acid] the “accessibility of non-coding sites upstream of the COPS7A locus” value [6] was “dose dependent accessibility” and the “dosage-dependent change of the chromatin regulatory landscape” value ([6]; seven concentrations) was “increasingly altered regulatory landscapes with higher doses”.

CN(C)Cc1c(C(=O)NCCOc2ccc(C(=O)NO)cc2)oc2ccccc12 [abexinostat] was tested, and the acetylated lysine levels [5] was “markedly increased acetylated lysine levels”.

In the case of C/C(=C\c1csc(C)n1)[C@@H]1C[C@@H]2O[C@@H]2CCC[C@H](C)[C@H](O)[C@@H](C)C(=O)C(C)(C)[C@@H](O)CC(=O)O1 [epothilone A], the “distinct transcriptional states induced by the same drug (focal enrichments in UMAP)” value (A549 [2]) is reported as “associated with three such focal enrichments”.
